Assay results: ChEMBL document CHEMBL4699440, “Comprehensive review on the anti-bacterial activity of 1,2,3-triazole hybrids” (Eur J Med Chem, 2019)
In brackets after ≈: the same amount, converted by molar mass.

Experiments:
Format in all cases: functional
Bacillus subtilis [1] = assay: Antibacterial activity against Bacillus subtilis ATCC 6051 incubated for 24 hrs by broth microdilution method
Escherichia coli [2] = assay: Antibacterial activity against Escherichia coli ATCC 25922 incubated for 24 hrs by broth microdilution method
Pseudomonas aeruginosa [3] = assay: Antibacterial activity against Pseudomonas aeruginosa ATCC 25619 incubated for 24 hrs by broth microdilution method
Staphylococcus aureus [4] = assay: Antibacterial activity against Staphylococcus aureus ATCC 12598 incubated for 24 hrs by broth microdilution method
Candida albicans = assay: Antifungal activity against Candida albicans ATCC 2091 incubated for 24 hrs by broth microdilution method
Aspergillus niger = assay: Antibacterial activity against Aspergillus niger ATCC 9029 incubated for 24 hrs by broth microdilution method
Bacillus subtilis [5] = assay: Antibacterial activity against Bacillus subtilis assessed as inhibition zone at 1 mg/ml measured after overnight incubation by disc diffusion method; conditions: read-out: IZ
Staphylococcus aureus [6] = assay: Antibacterial activity against Staphylococcus aureus assessed as inhibition zone at 1 mg/ml measured after overnight incubation by disc diffusion method; conditions: read-out: IZ
Pseudomonas aeruginosa [7] = assay: Antibacterial activity against Pseudomonas aeruginosa assessed as inhibition zone at 1 mg/ml measured after overnight incubation by disc diffusion method; conditions: read-out: IZ
Escherichia coli [8] = assay: Antibacterial activity against Escherichia coli assessed as inhibition zone at 1 mg/ml measured after overnight incubation by disc diffusion method; conditions: read-out: IZ

Compound	MIC (Bacillus subtilis [1]) [µg/mL]	MIC (Escherichia coli [2]) [µg/mL]	MIC (Pseudomonas aeruginosa [3]) [µg/mL]	MIC (Staphylococcus aureus [4]) [µg/mL]	MIC (Candida albicans) [µg/mL]	MIC (Aspergillus niger) [µg/mL]	zone of inhibition at 1000 µg/mL (Bacillus subtilis [5]) [mm]	zone of inhibition at 1000 µg/mL (Staphylococcus aureus [6]) [mm]	zone of inhibition at 1000 µg/mL (Pseudomonas aeruginosa [7]) [mm]	zone of inhibition at 1000 µg/mL (Escherichia coli [8]) [mm]
Cc1ccccc1-n1cc(CNc2ccccc2-c2nnc(-c3ccccc3)o2)nn1	–	–	–	–	–	–	2.5	2.5	2.5	2.5
c1ccc(-c2nnc(-c3ccccc3NCc3cn(-c4ccccc4)nn3)o2)cc1	–	–	–	–	–	–	2.5	2.5	2.5	2.5
Clc1ccc(-n2cc(CNc3ccccc3-c3nnc(-c4ccccc4)o3)nn2)cc1	–	–	–	–	–	–	2.5	2.5	2.5	2.5
Cc1ccc(-n2cc(CNc3ccccc3-c3nnc(-c4ccccc4)o3)nn2)cc1	–	–	–	–	–	–	2.5	2.5	2.5	2.5
COc1ccccc1-n1cc(CNc2ccccc2-c2nnc(-c3ccccc3)o2)nn1	–	–	–	–	–	–	2.5	2.5	2.5	2.5
Cc1nnn(Cc2cc(=O)oc3c4c(ccc23)OCO4)c1C(=O)O	25 (≈ 75.9 µM)	0.2 (≈ 0.607 µM)	25 (≈ 75.9 µM)	0.2 (≈ 0.607 µM)	0.2 (≈ 0.607 µM)	0.2 (≈ 0.607 µM)	–	–	–	–
COc1ccc2oc(=O)cc(Cn3nnc(N)c3C#N)c2c1	25 (≈ 84.1 µM)	0.2 (≈ 0.673 µM)	25 (≈ 84.1 µM)	0.2 (≈ 0.673 µM)	0.2 (≈ 0.673 µM)	0.2 (≈ 0.673 µM)	–	–	–	–
N#Cc1c(N)nnn1Cc1cc(=O)oc2c3c(ccc12)OCO3	25 (≈ 80.3 µM)	0.2 (≈ 0.643 µM)	25 (≈ 80.3 µM)	0.2 (≈ 0.643 µM)	0.2 (≈ 0.643 µM)	0.2 (≈ 0.643 µM)	–	–	–	–

The remaining molecules from weak to strong by MIC (Bacillus subtilis [1]), led by results:

MIC (Bacillus subtilis [1]) [µg/mL]	MIC (Escherichia coli [2]) [µg/mL]	MIC (Pseudomonas aeruginosa [3]) [µg/mL]	MIC (Staphylococcus aureus [4]) [µg/mL]	MIC (Candida albicans) [µg/mL]	MIC (Aspergillus niger) [µg/mL]	Compound	zone of inhibition at 1000 µg/mL (Bacillus subtilis [5]) [mm]	zone of inhibition at 1000 µg/mL (Staphylococcus aureus [6]) [mm]	zone of inhibition at 1000 µg/mL (Pseudomonas aeruginosa [7]) [mm]	zone of inhibition at 1000 µg/mL (Escherichia coli [8]) [mm]
25 (≈ 79.3 µM)	0.2 (≈ 0.634 µM)	25 (≈ 79.3 µM)	0.2 (≈ 0.634 µM)	0.2 (≈ 0.634 µM)	0.2 (≈ 0.634 µM)	COc1ccc2oc(=O)cc(Cn3nnc(C)c3C(=O)O)c2c1	–	–	–	–
25 (≈ 88.9 µM)	0.4 (≈ 1.42 µM)	25 (≈ 88.9 µM)	1.6 (≈ 5.69 µM)	0.2 (≈ 0.711 µM)	0.2 (≈ 0.711 µM)	Cc1ccc2oc(=O)cc(Cn3nnc(N)c3C#N)c2c1	–	–	–	–
25 (≈ 75.9 µM)	0.2 (≈ 0.607 µM)	25 (≈ 75.9 µM)	0.2 (≈ 0.607 µM)	0.2 (≈ 0.607 µM)	0.2 (≈ 0.607 µM)	Cc1nnn(Cc2cc(=O)oc3ccc4c(c23)OCO4)c1C(=O)O	–	–	–	–
25 (≈ 88.9 µM)	0.2 (≈ 0.711 µM)	25 (≈ 88.9 µM)	0.2 (≈ 0.711 µM)	0.2 (≈ 0.711 µM)	0.2 (≈ 0.711 µM)	Cc1ccc2c(Cn3nnc(N)c3C#N)cc(=O)oc2c1	–	–	–	–
25 (≈ 83.5 µM)	0.2 (≈ 0.668 µM)	25 (≈ 83.5 µM)	0.2 (≈ 0.668 µM)	0.2 (≈ 0.668 µM)	0.2 (≈ 0.668 µM)	Cc1ccc2c(Cn3nnc(C)c3C(=O)O)cc(=O)oc2c1	–	–	–	–
25 (≈ 76.4 µM)	0.4 (≈ 1.22 µM)	25 (≈ 76.4 µM)	0.2 (≈ 0.611 µM)	0.2 (≈ 0.611 µM)	0.2 (≈ 0.611 µM)	CCOC(=O)c1c(C)nnn1Cc1cc(=O)oc2ccc(C)cc12	–	–	–	–
25 (≈ 70 µM)	0.2 (≈ 0.56 µM)	25 (≈ 70 µM)	0.2 (≈ 0.56 µM)	0.2 (≈ 0.56 µM)	0.2 (≈ 0.56 µM)	CCOC(=O)c1c(C)nnn1Cc1cc(=O)oc2ccc3c(c12)OCO3	–	–	–	–
25 (≈ 83.5 µM)	0.4 (≈ 1.34 µM)	25 (≈ 83.5 µM)	0.2 (≈ 0.668 µM)	0.2 (≈ 0.668 µM)	0.2 (≈ 0.668 µM)	Cc1ccc2oc(=O)cc(Cn3nnc(C)c3C(=O)O)c2c1	–	–	–	–
25 (≈ 70 µM)	0.2 (≈ 0.56 µM)	25 (≈ 70 µM)	0.2 (≈ 0.56 µM)	0.2 (≈ 0.56 µM)	0.2 (≈ 0.56 µM)	CCOC(=O)c1c(C)nnn1Cc1cc(=O)oc2c3c(ccc12)OCO3	–	–	–	–
